How the values were obtained:
GTP-KRASG12D::SOS1 = GTP-KRASG12D::SOS1 (Homo sapiens, UniProt P01116, G12D); experiment: KRASG12D::SOS1 GTP TR-FRET assay
GDP-KRASG12D = GDP-KRASG12D (Homo sapiens, UniProt P01116, G12D); experiment: KD(HSQC) NMR; type: binding
Experimental: (§1) 80 difference spectrum. Mixtures of four fragments (each at 250 µM) were incubated in 25
(§2) 82 a mixture of GCP-KRASG12D and GDP-KRASG12V (each 4 µM). Binders were identified
(§3) 83 by comparing pre-recorded reference spectra with the STD difference spectrum.
(§4) 84 Deconvolution and confirmation of primary FBS hits obtained from STD-NMR and
(§5) 85 MST was performed using 2D 1H/15N TROSY NMR experiments(2) collected on a
(§6) 86 Bruker Avance III 600 MHz spectrometer equipped with a 5 mm z-gradient TCI cryo-
(§7) 87 probe. Samples were prepared directly before data acquisition using a Tecan Freedom
(§8) 88 Evo pipetting system and delivered by a Bruker Sample Rail to the magnet. Each sample
(§9) 89 contained either 50 µM 15N labeled GDP-KRASG12D or GCP-KRASG12D in 25 mM Tris-
(§10) 90 d11, 100 mM NaCl, 2 mM MgCl2, 0.5 mM TCEP pH 7.4 and 8% (v/v) D2O. Proteins […]
(§11) 92 d6DMSO. Spectra were recorded with 32 transients and 64 data points in the indirect […]
(§12) 100 support compound optimization. 1H/15N SoFast HMQC experiments(3) were recorded in […]
(§13) 102 recorded on a Avance III 700MHz spectrometer equipped with a cryogenically cooled […]
(§14) 107 DMSO. KDs were calculated from the differences in chemical shift induced by t he small […]
(§15) 109 dimension were calculated according to the following equation: […]
(§16) 120 (MicroCalTM, LLC Northampton, MA). Protein solutions were measured in 20 mM […]
(§17) 125 were analyzed with the MicroCal PEAQ-ITC analysis software package. […]

GCP-KRASG12D = GCP-KRASG12D (Homo sapiens, UniProt P01116, G12D); experiment: KD(HSQC) NMR; type: binding
Experimental: as §1, §2, §3, §4, §5, §6, §7, §8, §9, §10, §11, §12, §13, §14, §15, §16, §17

Sequence of GTP-KRASG12D::SOS1 (P01116 1-169 isoform P01116-2 G12D): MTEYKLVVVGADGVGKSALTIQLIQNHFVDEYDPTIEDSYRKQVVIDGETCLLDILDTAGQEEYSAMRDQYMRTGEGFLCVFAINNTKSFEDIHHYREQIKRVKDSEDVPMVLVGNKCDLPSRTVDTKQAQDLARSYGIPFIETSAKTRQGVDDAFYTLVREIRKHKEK
Sequence of GCP-KRASG12D (P01116 1-169 isoform P01116-2 G12D): as above
Sequence of GDP-KRASG12D (P01116 1-169 isoform P01116-2 G12D): as above

CN(C)Cc1[nH]c2ccccc2c1[C@H]1NC(=O)c2ccc(O)cc21 [Compound 18]
EC50 (GTP-KRASG12D::SOS1): 33 µM | IC50 (GTP-KRASG12D::SOS1): 33 µM | Kd (GDP-KRASG12D): 16 µM | Kd (GCP-KRASG12D): 17 µM
